Counter-ions that a name gives are not always drawn.
What was measured:
rat parathyroid cells = assay: Suppressing effect on PTH production, in vitro test using rat parathyroid cells (PTH (1-84) ELISA); assay type: cell-based; conditions: primary cultured rat parathyroid cells, 1.15 mM Ca, 22 to 24 hours culture
Source text: In Vitro Test Using Rat Parathyroid Cells
By using primary cultured cells prepared from the parathyroid in rats, suppressing effect on PTH production was examined according to the following in vitro test.
(1) Preparation and Culture of Rat Parathyroid Cells:
Thirty-six 10-weeks old male CD (SD) IGS rats (Crj series, grade: SPF, CHARLES RIVER LABORATORIES JAPAN, INC.) were euthanasically sacrificed under ether anesthesia, the thyroid gland together with the parathyroid glands were cut out under sterilized conditions, and preserved in ITS-containing DMEM/F-12 medium (low Ca). The parathyroid glands were separated from the obtained material under observation by stereoscopic microscope, and collected in the same medium. Next, the medium was discarded, the parathyroid glands were washed with a phosphate buffer solution (PBS(−)) containing no calcium and magnesium ions, 5 ml of a collagenase solution [PBS(−) containing 1.5 mg/ml of collagenase type IV (Gibco Co., catalogue No. 17104-019)] was added, and digested at 37° C. for 1 hour with shaking. After digestion, the enzyme solution was discarded, the parathyroid glands were quickly minced with a scalpel in a laboratory dish, and were collected in 7 ml of a collagenase solution, and digested again at 37° C. for 90 minutes with shaking.
Cell debris was removed using cell strainer, the residue was removed, and then, the cells were collected. They were washed twice with an ITS-containing DMEM/F-12 medium (low Ca) containing 5% FCS, and suspended in the same medium. The parathyroid cells were suspended at the concentration of about 5×10^4 cells/ml, and were seeded to 96-well plate (200 μl/well), and cultured (pre-culture) at 37° C. for about 24 hours in a CO2 incubator.
The ITS-containing DMEM/F-12 medium (low Ca) to be used mentioned above was prepared as follows. Ca-free DMEM (Dulbecco's modified Eagle's medium) (Gibco Co., catalogue No. 21068-028)(500 ml), F-12 (F-12 nutrient mixture; Gibco Co., catalogue No. 11765-054)(500 ml) and 10 ml of ITS (a mixture containing 5 μg/ml of insulin, 5 μg/ml of transferrin and 5 ng/ml of selenium) (ITS+Premix; BD Biosciences Co., catalogue No. 35435) were mixed. To the mixture was dissolved 3.5745 g of HEPES (NACALAI TESQUE Co., catalogue No. 17547-95), and 10 ml of 200 mM L-glutamine (Gibco Co., catalogue No. 25030-081) and 1 ml of Penicillin-Streptomycin solution (100×Penicillin-Streptomycin, liquid; Gibco Co., catalogue No. 15140-122) were added, and the resulting mixture was sterilized by filtration, and then, used. Ca concentration in the medium is about 0.15 mM.
(2) Test of Suppressing Effect on PTH Production
Rat parathyroid cells were pre-cultured as mentioned in the above (1), then, the medium was changed, and the cells were cultured for 22 to 24 hours in a medium to which a test compound and CaCl2 had been added (96-well plate, 200 μl/well). Various concentrations of the test compound and CaCl2 were added to a serum-free ITS-containing DMEM/F-12 medium (low Ca), and the resulting medium was used. When the test compound is to be added, CaCl2 was added so that the Ca concentration became 1.15 mM. […]
PTH (1-84) in the above-mentioned culture supernatant was measured by the ELISA Method, and determined as a PTH production value. […]
Based on the measured value (PTH production value), of the test compounds, the inhibition rate in PTH production was calculated. […]

human CaSR = target: T1, human CaSR (Homo sapiens, UniProt P41180); assay: CaSR activating effect, in vitro test using CaSR expressing cells (intracellular calcium, Fura-2/FDSS); assay type: cell-based; conditions: CHO cells stably expressing human CaSR and Gα16; change in intracellular calcium concentration
T1 construct: the full length cDNA encoding CaSR was obtained first as three divisional parts; expressed in transfected cells
T1 sequence (P41180 20-1078): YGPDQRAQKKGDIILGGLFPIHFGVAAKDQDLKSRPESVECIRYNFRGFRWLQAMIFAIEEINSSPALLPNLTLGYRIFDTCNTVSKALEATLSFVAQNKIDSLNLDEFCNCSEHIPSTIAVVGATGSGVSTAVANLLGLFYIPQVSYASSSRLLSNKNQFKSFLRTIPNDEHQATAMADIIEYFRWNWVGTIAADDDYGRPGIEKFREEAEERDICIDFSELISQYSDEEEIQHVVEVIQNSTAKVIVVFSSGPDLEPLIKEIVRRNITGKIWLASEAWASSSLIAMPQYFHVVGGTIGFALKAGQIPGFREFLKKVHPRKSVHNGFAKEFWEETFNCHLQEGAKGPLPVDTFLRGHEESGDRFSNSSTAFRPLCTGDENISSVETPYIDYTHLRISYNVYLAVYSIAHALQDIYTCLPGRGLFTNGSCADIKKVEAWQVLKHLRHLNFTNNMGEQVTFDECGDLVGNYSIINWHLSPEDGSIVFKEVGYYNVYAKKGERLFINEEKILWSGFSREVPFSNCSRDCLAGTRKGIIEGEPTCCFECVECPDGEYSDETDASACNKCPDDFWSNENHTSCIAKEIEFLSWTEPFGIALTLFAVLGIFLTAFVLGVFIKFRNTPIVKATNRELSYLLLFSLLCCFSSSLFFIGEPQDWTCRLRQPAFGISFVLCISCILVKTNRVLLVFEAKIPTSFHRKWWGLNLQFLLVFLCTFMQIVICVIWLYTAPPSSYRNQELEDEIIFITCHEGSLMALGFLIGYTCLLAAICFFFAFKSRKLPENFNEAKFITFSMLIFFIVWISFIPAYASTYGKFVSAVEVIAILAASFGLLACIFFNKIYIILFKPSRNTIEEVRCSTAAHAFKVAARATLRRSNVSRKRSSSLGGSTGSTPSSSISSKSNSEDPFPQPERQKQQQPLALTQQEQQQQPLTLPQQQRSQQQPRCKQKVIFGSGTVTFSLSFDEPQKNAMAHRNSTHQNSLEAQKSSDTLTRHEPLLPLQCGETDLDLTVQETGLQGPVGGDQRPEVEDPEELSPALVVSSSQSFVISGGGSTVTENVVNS
Source text: In vitro test using CaSR expressing cells
CaSR is a member of G protein-coupled receptor (GPCR). When CaSR of cells are activated by stimulating with extracellular Ca^2+ ion or an agonist (a compound having CaSR activating effect), etc., phospholipase C(PLC) is activated through G protein (Gq), and an intracellular calcium concentration is increased.
Thus, an activating effect on CaSR was examined by using CaSR expressing cell line and referring to change in an intracellular calcium concentration as an index. Preparation of cell strains and a test using the same are, more specifically, carried out as mentioned in the following (1) and (2).
(1) Acquisition of Human CaSR Expressing Cell Line
cDNA fragment encoding human CaSR was obtained from human kidney derived cDNA library by PCR.
[Primer to be Used for PCR was Designed Based on Known Nucleic Acid Sequence Information on Human CaSR (GenBank/EMBL Accession No. D50855; GenBank/EMBL Accession No. NM000388;
• Aida et al., Biochem. Biophys. Res. Commun., 214:524-529, 1995; • Garrett et al., J. Biol. Chem., 270: 12919-12925, 1995, etc.). Also, the full length cDNA encoding CaSR was obtained first as three divisional parts.]
These cDNA fragments were adequately connected to an expression vector to obtain a plasmid for expressing a functional human CaSR in animal cells.
Also, this human CaSR expression plasmid was transfected to CHO cells with a Qα16 expression plasmid α plasmid which is to express a subunit (α16) of G protein], and selected from a medium containing neomycin (G418) to obtain stable expressing cell line.
The obtained cell line stably expressed CaSR of human and α16 subunit of G protein.
(2) Measurement of Calcium Concentration in Cells
By using the CaSR expressing cell line obtained in the above-mentioned (1), change in an intracellular calcium concentration was measured at the time when the cells were stimulated in the presence or in the absence of a test compound as follows.
First, cells were collected using a cell scraper, suspended in a solution comprising Hepes buffer [10 mM Hepes (7.3), 10 mM glucose, 140 mM NaCl, 5 mM KCl, 2 mM CaCl2, 1 mM MgCl2] to which 0.1% cremophor and 3 μM Fura-2 had been added, and reacted at 37° C. for 1 hour under the conditions wherein a test compound of various concentrations (or conditions not added).
After being washed, the cells suspended in Hepes buffer were seeded to a plate (about 2×10^5 cells per 1 well of 96-well plate), and fluorescent intensity (Ratio of 340/380 nm) was measured using FDSS (Functional Drug Screening Sysytem; Hamamatsu Photonics K. K.) to examine change in intracellular calcium concentrations.
CaSR activating effect was confirmed basing on the value (change in an intracellular calcium concentration) measured in the reaction carried out in the presence of the test compound, a CaSR activating ability was confirmed.
Also, from the measured values (change in an intracellular calcium concentration) of the test compound with various concentrations, a concentration/response curve was drawn to obtain an EC50 value (concentration of agonist giving a half maximal response).

| Compound | IC50 (rat parathyroid cells) | EC50 (human CaSR) |
| --- | --- | --- |
| C[C@@H](N[C@@H]1CCCN(c2ccccn2)C1)c1cccc2ccccc12 [Example 1.077] | 5.3 nM | 0.42 µM |
| C[C@@H](N[C@H]1CCN(C(=O)Cc2ccccc2C(F)(F)F)C1)c1cccc2ccccc12 [Example 5.023] | < 10 nM | 0.42 µM |
| (S)-1-(1H-tetrazol-5-yl)pyrrolidin-3-yl-[(R)-1-(naphthalen-1-yl)ethyl]amine hydrochloride [Example 12.028] | 0.47 nM | 0.017 µM |

Now from value to compound:

| IC50 (rat parathyroid cells) | EC50 (human CaSR) | Compound |
| --- | --- | --- |
| 8 nM | 0.29 µM | C[C@@H](N[C@H]1CCN(c2ccc(C(=O)O)cc2)C1)c1cccc2ccccc12 [Example 3.001, 4-[(S)-3-[(R)-1-(naphthalen-1-yl)ethylamino]pyrrolidin-1-yl]benzoic acid hydrochloride] |
| 0.27 nM | 0.018 µM | C[C@@H](N[C@H]1CCN(c2ccc(S(=O)(=O)NCCN(C)C)cc2)C1)c1cccc2ccccc12 [Example 12.020] |

From patent publication US8759387B2, “Arylalkylamine compound and process for preparing the same” (Mitsubishi Tanabe Pharma Corporation, priority 2004, dated 2014)
